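Following 48 hours of exposure in 96-well plates, responses at five concentrations were used to interpolate endpoints linearly. GI50 marks 50% less growth. At the TGI there is no net growth.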
Experiments:
Assay in all cases: NCI tumour cell line growth inhibition, 48 h
[1] = test system: SW-620 colon
[2] = test system: HT29 colon
[3] = test system: MDA-MB-435
[4] = test system: CCRF-CEM leukemia
[5] = test system: M14 melanoma
[6] = test system: MALME-3M melanoma
[7] = test system: U251 CNS
[8] = test system: ACHN renal
[9] = test system: NCI-H522 lung
[10] = test system: SF-295 CNS
[11] = test system: HCT-15 colon
[12] = test system: MDA-MB-231 breast
[13] = test system: SF-539 CNS
[14] = test system: MOLT-4 leukemia
[15] = test system: TK-10 renal
[16] = test system: RXF 393 renal
[17] = test system: SNB-75 CNS

SMILES	TGI [1] [µM]	TGI [2] [µM]	TGI [3] [µM]	TGI [4] [µM]	TGI [5] [µM]	TGI [6] [µM]	TGI [7] [µM]	TGI [8] [µM]	TGI [9] [µM]	TGI [10] [µM]	TGI [11] [µM]	TGI [12] [µM]	TGI [13] [µM]	TGI [14] [µM]	TGI [15] [µM]	TGI [16] [µM]	TGI [17] [µM]	GI50 [10] [µM]	GI50 [16] [µM]
O=C(NNC(=S)NCc1ccccc1)c1csc(NC(=S)NC2CCCCC2)n1	> 100	12.1	82.9	> 100	> 100	> 100	> 100	> 100	> 100	> 100	> 100	83.3	> 100	> 100	> 100	–	–	–	–
CC(C)Oc1cccc(N2C(=NCCc3c[nH]c4ccccc34)Nc3ccncc3S2(=O)=O)c1	> 100	20.3	> 100	> 100	> 100	> 100	> 100	> 100	> 100	> 100	> 100	–	> 100	> 100	> 100	44.9	> 100	–	–
COc1ccc(N=NC(=Nc2ccc(Cl)cc2)c2ccc(N(CCC#N)CCC#N)cc2)cc1	> 100	> 100	> 100	–	> 100	–	> 100	> 100	45.3	> 100	> 100	> 100	> 100	91.6	> 100	> 100	> 100	–	–
CC1=NN(c2nc(N)nc(C/C(N)=N/O)n2)C(C)(C)C1	> 100	> 100	> 100	> 100	> 100	> 100	> 100	> 100	> 100	> 100	> 100	> 100	> 100	> 100	> 100	–	> 100	–	–
CN(C)c1nncc2n[nH]nc12	> 100	> 100	> 100	> 100	> 100	> 100	> 100	> 100	> 100	> 100	> 100	–	> 100	> 100	> 100	–	> 100	–	–
N#CC(C#N)N=Nc1ccc(-c2nc3ccccc3o2)cc1	28.1	27.8	52.9	–	31.2	> 100	29.7	41.6	73.7	–	38.5	61.7	26.1	37	38.2	–	66.5	–	–
CC(=O)OC[C@@]12Cc3ccc(C)c(O)c3[C@]1(C)[C@@H](OC(C)=O)[C@]1(O)[C@H]([C@@H](OC(=O)c3ccccc3)[C@@H](C)[C@H]1OC(C)=O)[C@H]2OC(C)=O	> 50	–	> 50	> 50	> 50	–	> 50	> 50	> 50	> 50	> 50	> 50	> 50	> 50	> 50	> 50	> 50	–	–
C=CCN1/C(=C2\SC(=S)N(c3ccc(C)cc3)C2=O)Sc2c1nc[nH]c2=O	> 100	> 100	–	> 100	> 100	> 100	> 100	> 100	> 100	> 100	> 100	–	> 100	> 100	> 100	> 100	–	–	–
COc1cc2c(cc1OC)CC1c3cc(OC)c(OC)cc3CCN1CC2 (configuration not stated)	> 100	> 100	> 100	> 100	> 100	–	> 100	> 100	> 100	> 100	> 100	> 100	> 100	> 100	> 100	> 100	> 100	–	–
CC(=O)OCC(C)(COC(C)=O)N1C(=O)C2C3c4ccccc4C(c4ccccc43)C2C1=O (configuration not stated)	> 100	> 100	> 100	> 100	> 100	–	> 100	> 100	–	> 100	> 100	> 100	> 100	> 100	> 100	> 100	> 100	–	–
COc1ccc(NC(=O)C(C)Oc2ccc(OCC3CCCCC3)cc2)cc1 (configuration not stated)	–	> 100	–	> 100	> 100	> 100	> 100	> 100	> 100	–	> 100	–	> 100	> 100	> 100	> 100	> 100	–	–
Clc1ccc(C[P+]2(c3ccccc3)CCCCC2)cc1	> 100	> 100	–	> 100	> 100	> 100	> 100	> 100	> 100	> 100	> 100	–	> 100	> 100	> 100	> 100	> 100	–	–
CN(C(=O)C1=CCC2(CC1)OCCO2)c1ccccc1I	> 100	> 100	> 100	> 100	> 100	–	> 100	> 100	> 100	> 100	> 100	> 100	–	> 100	> 100	–	> 100	–	–
O=C(O)CCC(N=NNc1ccc(-c2nc3ccccc3[nH]2)cc1)C(=O)O (configuration not stated)	> 100	> 100	> 100	> 100	> 100	–	> 100	> 100	> 100	73.2	> 100	> 100	> 100	> 100	> 100	> 100	> 100	–	–
COc1nc2c(c(=O)n1C)N=C(c1ccccc1)[C@H](C(CC(=O)c1ccccc1)c1ccccc1)C(c1ccccc1)N2 (some centres not stated)	> 100	> 100	> 100	> 100	> 100	–	> 100	> 100	> 100	> 100	–	78.7	> 100	57.1	–	> 100	44.5	–	–
CCN(CC)Cc1ccc(C(=S)Nc2ccc(C)cc2)s1	45.3	14.4	26.5	30.8	28.9	32.5	30	39	28.9	28.3	32.3	–	37.7	41.6	–	–	–	–	–

SMILES	TGI [1] [µM]	TGI [2] [µM]	TGI [3] [µM]	TGI [4] [µM]	TGI [5] [µM]	TGI [6] [µM]	TGI [7] [µM]	TGI [8] [µM]	TGI [9] [µM]	TGI [10] [µM]	TGI [11] [µM]	TGI [12] [µM]	TGI [13] [µM]	TGI [14] [µM]	TGI [15] [µM]	TGI [16] [µM]	TGI [17] [µM]	GI50 [10] [µM]	GI50 [16] [µM]
COC(=O)C(Br)C1CCc2ccccc21 (configuration not stated)	> 100	> 100	–	> 100	> 100	> 100	> 100	> 100	–	> 100	> 100	–	–	> 100	> 100	–	–	–	–
C/C=C1\CN2CCc3c([nH]c4ccccc34)C2C=C1CCO (configuration not stated)	> 340	> 340	–	> 340	–	> 340	> 340	> 340	> 340	> 340	> 340	–	> 340	> 340	> 340	> 340	–	–	–
OC(c1ccc2c(c1)OCO2)c1ccc2c(c1)OCO2	> 100	> 100	> 100	> 100	> 100	> 100	> 100	> 100	> 100	> 100	> 100	> 100	> 100	> 100	> 100	–	> 100	–	–
CN(C)c1snc2c1c(=O)n(C)c(=O)n2C	> 100	> 100	–	> 100	–	> 100	> 100	> 100	> 100	> 100	> 100	–	> 100	> 100	> 100	–	> 100	–	–
CC(NC(=O)c1ccc(NP(=O)(OCc2ccc([N+](=O)[O-])o2)N(C)CCCCCl)cc1)c1ccc(OCC2CCCCC2)c(C(N)=O)c1 (configuration not stated)	86.8	44.4	33.6	16.5	–	–	49.9	> 100	34.2	36.4	> 100	35	33.7	68.8	80.7	31	31.7	–	–
O=C1c2ccccc2C(=O)C1C(c1ccc(F)cc1)C1C(=O)c2ccccc2C1=O	> 100	> 100	–	> 100	> 100	> 100	> 100	> 100	> 100	> 100	> 100	–	> 100	> 100	> 100	71.3	> 100	–	–
Cn1c2ccccc2c(=O)c2cccc(C(=O)NCC(=O)O)c21	> 100	> 100	> 100	–	> 100	> 100	> 100	> 100	–	> 100	> 100	> 100	> 100	> 100	> 100	–	> 100	–	–
CC(C)(C)OC(=O)NCCCC(=O)NC1(c2cc3ccccc3s2)CCCCC1	52.8	30.6	33.1	28.4	40.1	37	–	41	34.1	34	45.5	–	30.7	34.4	97.2	44.1	27.7	–	–
CN(C)CCNC(=O)Cn1cnc2cccc([N+](=O)[O-])c2c1=O	> 100	> 100	> 100	> 100	> 100	> 100	> 100	> 100	> 100	> 100	> 100	–	> 100	> 100	> 100	> 100	–	–	–
COC(=O)C(C(=O)C(=O)Nc1cccc([N+](=O)[O-])c1)c1nc2ccc([N+](=O)[O-])cc2[nH]c1=O (configuration not stated)	> 100	> 100	–	> 100	> 100	> 100	> 100	> 100	> 100	> 100	> 100	–	> 100	> 100	> 100	> 100	> 100	–	–
O=c1cc(-c2ccco2)[nH]c2cc3c(cc12)OCO3	> 100	> 100	–	> 100	–	> 100	> 100	> 100	–	> 100	> 100	–	75.5	> 100	> 100	92.8	56.5	28.1	24.9
Cc1ccc(OCC2OC(n3cnc4c(Cl)nc(Cl)nc43)CC2Oc2ccc(C)cc2)cc1 (configuration not stated)	> 100	2.91	5.48	> 100	3.99	5.13	4.91	2.66	3.82	5.42	3.27	3.99	4.04	4.27	23.3	–	5.39	–	–
C#CCN(N=O)C(=O)NCCCCC(NC(C)=O)C(=O)NCc1ccccc1 (configuration not stated)	> 100	> 100	–	> 100	> 100	> 100	> 100	> 100	> 100	> 100	> 100	–	> 100	> 100	> 100	> 100	> 100	–	–
CCOC(=O)c1c(C)n([O-])c2cc(Cl)c(Cl)cc2[n+]1=O	–	> 100	55.1	45.9	43.9	–	> 100	> 100	–	> 100	37.2	51.3	> 100	42.8	54.8	50.3	–	–	–
CCOC(=O)c1c(C)n(C)c2c1cc(O)c1[nH]c3c(c12)CCCC3	44.1	49.4	29.6	43.6	29.2	31.7	36.8	> 100	28.7	> 100	> 100	43.9	37.9	45.6	60.9	–	–	–	–

From PubChem BioAssay (NCI)
